Results as given in patent publication US10730889B2, “Amido spirocyclic amide and sulfonamide derivatives” (Forma TM, LLC, priority 2012, dated 2020).

Test system: A2780 cells
Assay: In-vitro cell proliferation assay (SRB, 72 hours)
Format: cell-based
Conditions: Homo sapiens, A2780, 72 h, A2780 cells, 72 hours, SRB; read-out: Cell Proliferation (IC50)
Procedure: Assay 2: In-Vitro Cell Proliferation Assay
Assay Method. […] The compounds were then further diluted to 10× final concentration in culture media, whereupon 20 μL of each dilution was added to the plated cells with controls (e.g. DMSO and blank) to make a final volume of 200 μL. The final DMSO concentration in each well was 0.1%. The plates were then incubated for 72 hours at 37° C. in a 5% CO2 incubator. The number of viable cells was then assessed using sulforhodamine B (SRB) assay. Cells were fixed at 4° C. for 1 hour with the addition of 50 μL 30% trichloroacetic acid (TCA) to make a final concentration of 6% TCA. The plates were washed four times with H2O and allowed to dry for at least 1 hour, whereupon 100 μL of a 4% SRB in 1% acetic acid solution was added to each well and incubated at room temperature for at least 30 min. The plates were then washed three times with 1% acetic acid, dried, and treated with 100 μL of 10 mM Tris-Base solution. The plates were then read in a microplate reader at an absorbance of 570 nm. Background was generated on a separate plate with media only.
Determination of IC50 Values. First, the signals from the background plate were averaged, then the background was subtracted from the test plates.

Going from `O=C(NCC1CC12CCN(C(=O)CCN1CCOCC1)CC2)c1cc2ccncc2o1` (centres unmarked) [Example 65, N-[[6-(3-morpholinopropanoyl)-6-azaspiro[2.5]octan-2-yl]methyl]furo[2,3-c]pyridine-2-carboxamide] to `CN1CCN(CCC(=O)N2CCC3(CC2)CC3CNC(=O)c2cc3ccncc3o2)CC1` (centres unmarked) [Example 89, N-[[6-[3-(4-methylpiperazin-1-yl)propanoyl]-6-azaspiro[2.5]octan-2-yl]methyl]furo[2,3-c]pyridine-2-carboxamide], the IC50 falls from 931 nM to 116 nM (8-fold).

`O=C(NCC1CC12CCN(C(=O)C1CCS(=O)(=O)C1)CC2)c1cc2ccncc2o1` (centres unmarked) [Example 66, N-[[6-(1,1-dioxothiolane-3-carbonyl)-6-azaspiro[2.5]octan-2-yl]methyl]furo[2,3-c]pyridine-2-carboxamide] and `O=C(NCC1CC12CCN(C(=O)CC1CCS(=O)(=O)C1)CC2)c1cc2ccncc2o1` (centres unmarked) [Example 80, N-[[6-[2-(1,1-dioxothiolan-3-yl)acetyl]-6-azaspiro[2.5]octan-2-yl]methyl]furo[2,3-c]pyridine-2-carboxamide] are within 1.5-fold of each other in IC50: 2000 nM for the first, 1340 nM for the second.

Compared with `Cc1cc(C)n(CC(=O)N2CCC3(CC2)CC3CNC(=O)c2cc3ccncc3o2)n1` (centres unmarked) [Example 67, N-[[6-[2-(3,5-dimethylpyrazol-1-yl)acetyl]-6-azaspiro[2.5]octan-2-yl]methyl]furo[2,3-c]pyridine-2-carboxamidc], `O=C(NCC1CC12CCN(C(=O)Cn1ccc(=O)[nH]c1=O)CC2)c1cc2ccncc2o1` (centres unmarked) [Example 81, N-[[6-[2-(2,4-dioxopyrimidin-1-yl)acetyl]-6-azaspiro[2.5]octan-2-yl]methyl]furo[2,3-c]pyridine-2-carboxamide] is 10-fold higher in IC50: 193 nM for the first, 2000 nM for the second.

Going from `CC(=O)N1CCCC1C(=O)N1CCC2(CC1)CC2CNC(=O)c1cc2ccncc2o1` (centres unmarked) [Example 68, N-[[6-(1-acetylpyrrolidine-2-carbonyl)-6-azaspiro[2.5]octan-2-yl]methyl]furo[2,3-c]pyridine-2-carboxamide] to `CS(=O)(=O)N1CCCC1C(=O)N1CCC2(CC1)CC2CNC(=O)c1cc2ccncc2o1` (centres unmarked) [Example 76, N-[[6-(1-methylsulfonylpyrrolidine-2-carbonyl)-6-azaspiro[2.5]octan-2-yl]methyl]furo[2,3-c]pyridine-2-carboxamide], the IC50 falls from 414 nM to 228 nM (1.8-fold).

`CS(=O)(=O)c1ccccc1C(=O)N1CCC2(CC1)CC2CNC(=O)c1cc2ccncc2o1` (centres unmarked) [Example 69, N-[[6-(2-methylsulfonylbenzoyl)-6-azaspiro[2.5]octan-2-yl]methyl]furo[2,3-c]pyridine-2-carboxamide] and `CS(=O)(=O)c1cccc(C(=O)N2CCC3(CC2)CC3CNC(=O)c2cc3ccncc3o2)c1` (centres unmarked) [Example 92, N-[[6-(3-methylsulfonylbenzoyl)-6-azaspiro[2.5]octan-2-yl]methyl]furo[2,3-c]pyridine-2-carboxamide] are within 1.5-fold of each other in IC50: 194 nM for the first, 152 nM for the second.

First: O=C(NCC1CC12CCN(C(=O)c1cccc(-n3cnnc3)c1)CC2)c1cc2ccncc2o1 (centres unmarked) [Example 70, N-[[6-[3-(1,2,4-triazol-4-yl)benzoyl]-6-azaspiro[2.5]octan-2-yl]methyl]furo[2,3-c]pyridine-2-carboxamide]
Second: O=C(NCC1CC12CCN(C(=O)c1ccncc1)CC2)c1cc2ccncc2o1 (centres unmarked) [Example 97, N-[[6-(pyridine-4-carbonyl)-6-azaspiro[2.5]octan-2-yl]methyl]furo[2,3-c]pyridine-2-carboxamide]
The IC50 of the first is 4.1-fold lower: 492 nM for the first, 2000 nM for the second. The first is the more potent here.

Going from `CC(=O)Nc1ccc(C(=O)N2CCC3(CC2)CC3CNC(=O)c2cc3ccncc3o2)cc1` (centres unmarked) [Example 72, N-[[6-(4-acetamidobenzoyl)-6-azaspiro[2.5]octan-2-yl]methyl]furo[2,3-c]pyridine-2-carboxamide] to `NC(=O)Nc1ccc(C(=O)N2CCC3(CC2)CC3CNC(=O)c2cc3ccncc3o2)cc1` (centres unmarked) [Example 94, N-[[6-(4-ureidobenzoyl)-6-azaspiro[2.5]octan-2-yl]methyl]furo[2,3-c]pyridine-2-carboxamide], the IC50 rises from 48.1 nM to 437 nM (9.1-fold).

Compared with `CS(=O)(=O)N1CCCC(C(=O)N2CCC3(CC2)CC3CNC(=O)c2cc3ccncc3o2)C1` (centres unmarked) [Example 73, N-[[6-(1-methylsulfonylpiperidine-3-carbonyl)-6-azaspiro[2.5]octan-2-yl]methyl]furo[2,3-c]pyridine-2-carboxamide], `CS(=O)(=O)N1CCC(C(=O)N2CCC3(CC2)CC3CNC(=O)c2cc3ccncc3o2)CC1` (centres unmarked) [Example 74, N-[[6-(1-methylsulfonylpiperidine-4-carbonyl)-6-azaspiro[2.5]octan-2-yl]methyl]furo[2,3-c]pyridine-2-carboxamide] is 6.6-fold higher in IC50: 25.8 nM for the first, 169 nM for the second.

Going from `CC(C(=O)N1CCC2(CC1)CC2CNC(=O)c1cc2ccncc2o1)N1CCOCC1` (centres unmarked) [Example 75, N-[[6-(2-morpholinopropanoyl)-6-azaspiro[2.5]octan-2-yl]methyl]furo[2,3-c]pyridine-2-carboxamide] to `CC(=O)N1CCC(C(=O)N2CCC3(CC2)CC3CNC(=O)c2cc3ccncc3o2)CC1` (centres unmarked) [Example 82, N-[[6-(1-acetylpiperidine-4-carbonyl)-6-azaspiro[2.5]octan-2-yl]methyl]furo[2,3-c]pyridine-2-carboxamide], the IC50 rises from 80.9 nM to 710 nM (8.8-fold). The first is the more potent here.

Compared with `O=C(NCC1CC12CCN(C(=O)CC1NC(=O)c3ccccc31)CC2)c1cc2ccncc2o1` (centres unmarked) [Example 77, N-[[6-[2-(3-oxoisoindolin-1-yl)acetyl]-6-azaspiro[2.5]octan-2-yl]methyl]furo[2,3-c]pyridine-2-carboxamide], `O=C(NCC1CC12CCN(C(=O)c1ccccn1)CC2)c1cc2ccncc2o1` (centres unmarked) [Example 98, N-[[6-(pyridine-2-carbonyl)-6-azaspiro[2.5]octan-2-yl]methyl]furo[2,3-c]pyridine-2-carboxamide] is 1.7-fold higher in IC50: 1150 nM for the first, 2000 nM for the second.

`NC(=O)N1CCC(C(=O)N2CCC3(CC2)CC3CNC(=O)c2cc3ccncc3o2)CC1` (centres unmarked) [Example 78, N-[[6-(1-carbamoylpiperidme-4-carbonyl)-6-azaspiro[2.5]octan-2-y]methyl]furo(2,3-c]pyridine-2-carboxamide] and `NC(=O)N1CCCC(C(=O)N2CCC3(CC2)CC3CNC(=O)c2cc3ccncc3o2)C1` (centres unmarked) [Example 79, N-[[6-(1-carbamoylpiperidine-3-carbonyl)-6-azaspiro[2.5]octan-2-yl]methyl]furo[2,3-c]pyridine-2-carboxamide] are the same in IC50: 2000 nM for the first, 2000 nM for the second.

Going from `O=C(NCC1CC12CCN(C(=O)c1ccc(Cn3cnnn3)cc1)CC2)c1cc2ccncc2o1` (centres unmarked) [Example 83, N-[[6-[4-(tetrazol-1-ylmethyl)benzoyl]-6-azaspiro[2.5]octan-2-yl]methyl]furo[2,3-c]pyridine-2-carboxamide] to `Cc1nnnn1Cc1ccc(C(=O)N2CCC3(CC2)CC3CNC(=O)c2cc3ccncc3o2)cc1` (centres unmarked) [Example 96, N-[[6-[4-[(5-methyltetrazol-1-yl]methyl]benzoyl]-6-azaspiro[2.5]octan-2-yl]methyl]furo[2,3-c]pyridine-2-carboxamide], the IC50 falls from 1080 nM to 711 nM (1.5-fold).

Going from `CS(=O)(=O)Nc1ccc(C(=O)N2CCC3(CC2)CC3CNC(=O)c2cc3ccncc3o2)cc1` (centres unmarked) [Example 84, N-[[6-[4-(methanesulfonamido)benzoyl]-6-azaspiro[2.5]octan-2-yl]methyl]furo[2,3-c]pyridine-2-carboxamide] to `CS(=O)(=O)c1ccc(C(=O)N2CCC3(CC2)CC3CNC(=O)c2cc3ccncc3o2)cc1` (centres unmarked) [Example 93, N-[[6-(4-methylsulfonylbenzoyl)-6-azaspiro[2.5]octan-2-yl]methyl]furo[2,3-c]pyridine-2-carboxamide], the IC50 rises from 185 nM to 878 nM (4.7-fold). The first is the more potent here.

Going from `O=C(NCC1CC12CCN(C(=O)c1ccc(N3CCS(=O)(=O)CC3)cc1)CC2)c1cc2ccncc2o1` (centres unmarked) [Example 85, N-[[6-[4-(1,1-dioxo-1,4-thiazinan-4-yl)benzoyl]-6-azaspiro[2.5]octan-2-yl)methyl]furo[2,3-c]pyridine-2-carboxamide] to `CN1CCN(Cc2ccc(C(=O)N3CCC4(CC3)CC4CNC(=O)c3cc4ccncc4o3)cc2)CC1` (centres unmarked) [Example 86, N-[[6-[4-[(4-methylpiperazin-1-yl)methyl]benzoyl]-6-azaspiro[2.5]octan-2-yl]methyl]furo[2,3-c]pyridine-2-carboxamide], the IC50 falls from 14.2 nM to 4.53 nM (3.1-fold). The second is the more potent here.

First: CN1CCN(Cc2ccccc2C(=O)N2CCC3(CC2)CC3CNC(=O)c2cc3ccncc3o2)CC1 (centres unmarked) [Example 87, N-[[6-[2-[(4-methylpiperazin-1-yl)methyl]benzoyl]-6-azaspiro[2.5]octan-2-yl]methyl]furo[2,3-c]pyridine-2-carboxamide]
Second: CN1CCN(Cc2cccc(C(=O)N3CCC4(CC3)CC4CNC(=O)c3cc4ccncc4o3)c2)CC1 (centres unmarked) [Example 88, N-[[6-[3-[(4-methylpiperazin-1-yl)methyl]benzoyl]-6-azaspiro[2.5]octan-2-yl]methyl]furo[2,3-c]pyridine-2-carboxamide]
The IC50 of the first is 200-fold higher: 2000 nM for the first, 9.77 nM for the second.

Compared with `CC(C)N1CC(C(=O)N2CCC3(CC2)CC3CNC(=O)c2cc3ccncc3o2)CC1=O` (centres unmarked) [Example 90, N-[[6-(1-isopropyl-5-oxo-pyrrolidine-3-carbonyl)-6-azaspiro[2.5]octan-2-yl)methyl]furo[2,3-c]pyridine-2-carboxamide], `O=C(NCC1CC12CCN(C(=O)c1cocn1)CC2)c1cc2ccncc2o1` (centres unmarked) [Example 99, N-[[6-(oxazole-4-carbonyl)-6-azaspiro[2.5]octan-2-yl]methyl]furo[2,3-c]pyridine-2-carboxamide] is 11-fold higher in IC50: 183 nM for the first, 2000 nM for the second.

`O=C1CN(CC(=O)N2CCC3(CC2)CC3CNC(=O)c2cc3ccncc3o2)CCN1` (centres unmarked) [Example 91, N-[[6-[2-(3-oxopiperazin-1-yl)acetyl]-6-azaspiro[2.5]octan-2-yl]methyl]furo[2,3-c]pyridine-2-carboxamide] and `CC(=O)N1CCN(CC(=O)N2CCC3(CC2)CC3CNC(=O)c2cc3ccncc3o2)CC1` (centres unmarked) [Example 95, N-[[6-[2-(4-acetylpiperazin-1-yl)acetyl]-6-azaspiro[2.5]octan-2-yl]methyl]furo[2,3-c]pyridine-2-carboxamide] are the same in IC50: 2000 nM for the first, 2000 nM for the second.

`O=C(NCC1CC12CCN(C(=O)c1nc[nH]n1)CC2)c1cc2ccncc2o1` (centres unmarked) [Example 100, N-[[6-(1H-1,2,4-triazole-3-carbonyl)-6-azaspiro[2.5]octan-2-yl]methyl]furo[2,3-c]pyridine-2-carboxamide] was tested, and the IC50 was 2000 nM.
